# Calls of active or inactive are those of the source.
# Key:
# [1] = molecular target: ATP-sensitive inward rectifier potassium channel 1 (Homo sapiens, UniProt P48048); experiment: ROMK inhibition by analog compounds, SAR follow-up, cell-based, thallium flux, analog library (AID 435017); format: functional
# [2] = molecular target: Protein-tyrosine kinase 2-beta (Homo sapiens, UniProt Q14289);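 further: potency of inhibitors of PYK2 kinase phosphorylation of poly-GT substrate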
# [3] = A Cell-Based Confirmatory Screen for Compounds that Inhibit VEEV, TC-83 (2).; format: functional
# Vero [4] = experiment: cells; format: functional, cell-based; details: Chlorocebus sabaeus
# [5] = HEp-2 cell cytotoxicity, dose response, cytotoxicity control for RSV inhibitor project, HTS (AID 2410); format: functional; details: human respiratory syncytial virus
# [6] = Vero 76 cell cytotoxicity, dose response, cytotoxicity control, set 2 (AID 602240); format: functional; details: Venezuelan equine encephalitis virus
# [7] = A Cell-Based Counter Screen testing Compounds that Inhibit VEEV TC-83, in strain KU V3526.; format: functional
# Vero [8] = experiment: cells; format: functional; details: Chlorocebus sabaeus
# [9] = M. tuberculosis H37Rv growth inhibitors, H37Rv strain (AID 1626); format: functional
# [10] = Luminescence Cell-Based Dose Response to Identify Activators of Luciferase Translation or Activity in H4-C Neuroglioblastoma Cells. [Related pubchem assays: 1829 (Project Summary), 1814 (Primary HTS)]; format: functional
# H4 = experiment: Luminescence Cell-Based Dose Response HTS to Identify Activators of 5'UTR Stem-Loop Driven Prion Protein mRNA Translation in H4 Neuroglioblastoma Cells. [Related pubchem assays: 1829 (Project Summary), 1814 (Primary HTS)]; format: functional; details: Homo sapiens
# [11] = Luminescence Cell-Based Dose Response to Identify Activators of 5'UTR Stem-Loop Driven Prion Protein mRNA Translation in H4-C Neuroglioblastoma Cells. [Related pubchem assays: 1829 (Project Summary), 1814 (Primary HTS)]; format: functional
# [12] = Luminescence Cell-Based Dose Confirmation HTS to Identify Activators of 5'UTR Stem-Loop Driven Alpha-Synuclein mRNA Translation in H4 Neuroglioblastoma Cells. [Related pubchem assays: 1829 (Project Summary), 1814 (Primary HTS)]; format: functional
# [13] = Luminescence Cell-Based Dose Confirmation to Identify Activators of 5'UTR Stem-Loop Driven Alpha-Synuclein mRNA Translation in H4 Neuroglioblastoma Cells. [Related pubchem assays: 1829 (Project Summary), 1814 (Primary HTS)]; format: functional
# [14] = Luminescence Cell-Based Dose Response HTS to Identify Activators of Luciferase Translation or Activity in H4 […] Cells. [Related pubchem assays: 1829 (Project Summary), 1814 (Primary HTS)]; format: functional
# [15] = M. tuberculosis growth inhibition, HTS (AID 449762); format: functional
# [16] = A High Throughput Confirmatory Assay used to Identify Novel Compounds that Inhibit Mycobacterium Tuberculosis in the absence of Glycerol.; format: functional
# Chain of Protein-tyrosine kinase 2-beta (Q14289 whole entry): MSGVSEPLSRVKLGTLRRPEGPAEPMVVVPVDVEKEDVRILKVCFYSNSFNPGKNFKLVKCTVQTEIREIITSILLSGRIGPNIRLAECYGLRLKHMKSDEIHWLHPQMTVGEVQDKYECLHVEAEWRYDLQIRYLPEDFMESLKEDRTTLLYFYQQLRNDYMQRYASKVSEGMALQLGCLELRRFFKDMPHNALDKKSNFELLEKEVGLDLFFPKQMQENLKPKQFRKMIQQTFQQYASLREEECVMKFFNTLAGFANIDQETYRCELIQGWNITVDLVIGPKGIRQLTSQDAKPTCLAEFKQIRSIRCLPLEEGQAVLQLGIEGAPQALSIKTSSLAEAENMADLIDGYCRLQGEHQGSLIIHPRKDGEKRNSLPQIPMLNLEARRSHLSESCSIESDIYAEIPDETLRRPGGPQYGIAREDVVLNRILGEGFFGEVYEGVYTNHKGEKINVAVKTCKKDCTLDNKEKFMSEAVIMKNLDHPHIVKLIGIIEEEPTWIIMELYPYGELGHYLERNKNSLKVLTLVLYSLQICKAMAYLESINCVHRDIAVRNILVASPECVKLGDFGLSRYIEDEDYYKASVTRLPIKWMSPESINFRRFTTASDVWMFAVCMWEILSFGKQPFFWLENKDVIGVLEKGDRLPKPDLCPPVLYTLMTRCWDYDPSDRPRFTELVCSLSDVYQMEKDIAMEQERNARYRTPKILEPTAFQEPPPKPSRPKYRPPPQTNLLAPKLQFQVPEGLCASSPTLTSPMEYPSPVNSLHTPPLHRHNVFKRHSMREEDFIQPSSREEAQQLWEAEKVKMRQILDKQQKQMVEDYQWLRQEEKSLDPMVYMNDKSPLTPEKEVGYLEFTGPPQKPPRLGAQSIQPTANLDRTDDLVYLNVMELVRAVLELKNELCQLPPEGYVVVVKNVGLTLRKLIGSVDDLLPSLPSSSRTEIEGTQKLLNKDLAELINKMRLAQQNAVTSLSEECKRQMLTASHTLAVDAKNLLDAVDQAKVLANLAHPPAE
# Chain of ATP-sensitive inward rectifier potassium channel 1 (P48048 whole entry): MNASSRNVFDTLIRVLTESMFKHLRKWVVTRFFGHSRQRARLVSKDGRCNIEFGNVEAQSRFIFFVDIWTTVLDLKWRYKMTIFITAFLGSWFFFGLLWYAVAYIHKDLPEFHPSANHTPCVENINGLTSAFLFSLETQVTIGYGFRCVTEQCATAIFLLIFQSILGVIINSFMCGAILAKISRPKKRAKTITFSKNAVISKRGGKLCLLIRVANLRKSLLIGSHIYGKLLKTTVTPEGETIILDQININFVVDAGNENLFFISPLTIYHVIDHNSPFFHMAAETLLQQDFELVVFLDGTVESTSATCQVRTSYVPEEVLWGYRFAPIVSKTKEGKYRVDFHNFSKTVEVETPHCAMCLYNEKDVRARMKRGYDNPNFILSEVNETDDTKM
smiles,measurement,setting,value
COc1ccc([N+](=O)[O-])cc1CN1CCOCCOCCN(Cc2ccc([N+](=O)[O-])cc2OC)CCOCC1,IC50,[1],1.5 µM (active)
CCN(CC)S(=O)(=O)c1cc([N+](=O)[O-])ccc1NNC(=O)Nc1ccccc1,IC50,[2],> 69.5 µM (not active)
O=C(Cc1cccs1)Nc1nc2c(s1)CCCC2,IC50,[3],7.09 µM (active)
same,IC50,Vero [4],6.38 µM (active)
same,CC50,[5],17.2 µM (active)
same,CC50,[6],> 50 µM (active)
same,IC50,[7],4.71 µM (active)
same,IC50,cells,10 µM (active)
same,CC50,Vero [8],> 25 µM (active)
CCc1ccc(Nc2c([N+](=O)[O-])c(=O)oc3ccccc23)cc1,IC50,[9],> 100 µM (active)
NNc1nc2c(F)cccc2s1,EC50,[10],> 12 µM (not active)
same,EC50,H4,> 120 µM (not active)
same,EC50,[11],> 12 µM (not active)
same,EC50,[12],< 0.1 µM (active)
same,EC50,[13],> 12 µM (not active)
same,EC50,[14],5.67 µM (active)
O=c1c2ccccc2nc(/C=C/c2ccccc2)n1-c1ccc(O)cc1,IC50,[15],> 100 µM (active)
same,IC50,[16],> 50 µM (active)
